Laboratory results published in patent publication US9408842B2, “Substituted pyrano and furanoquinolines, their preparation and use as medicaments” (LABORATORIOS DEL DR. ESTEVE S.A., priority 2012, dated 2016).
Structures can show the parent of a compound that is named as a salt.

molecular target: T1, σ1-receptor (Cavia porcellus, UniProt Q60492); experiment: binding assay for the σ1-receptor, [3H]-(+)-pentazocine, brain membranes; settings: guinea pig brain membranes; radioligand [3H]-(+)-pentazocine 5.0 nM; 150 min at 37° C.; nonspecific binding with 1 μM haloperidol
T1 construct: Guinea pig brains were homogenized in 10 vols; (w/v) of Tris-HCl 50 mM 0.32 M sucrose, pH 7.4; from tissue; host or cells: guinea pig brain membranes
Procedure: Guinea pig brains were homogenized in 10 vols. (w/v) of Tris-HCl 50 mM 0.32 M sucrose, pH 7.4, with a Kinematica Polytron PT 3000 at 15000 r.p.m. for 30 s. The homogenate was centrifuged at 1000 g for 10 min at 4° C. and the supernatants collected and centrifuged again at 48000 g for 15 min at 4° C. The pellet was resuspended in 10 volumes of Tris-HCl buffer (50 mM, pH 7.4), incubated at 37° C. for 30 min, and centrifuged at 48000 g for 20 min at 4° C. Following this, the pellet was re-suspended in fresh Tris-HCl buffer (50 mM, pH 7.4) and stored on ice until use.
The radioligand used was [^3H]-(+)-pentazocine at 5.0 nM and the final volume was 200 μl. The incubation was initiated with the addition of 100 μl of membrane at a final tissue concentration of approximately 5 mg tissue net weight/mL and the incubation time was 150 m. at 37° C. After incubation, the membranes were collected onto pretreated glass fiber filterplate (MultiScreen-FC, Millipore), with polyethylenimine 0.1%. The filters were washed two times with 200 μl of washing buffer (50 mM Tris Cl, pH=7.4) and then 25 μl of Ecoscint H liquid scintillation cocktail were added. […] Nonspecific binding was determined with 1 μM haloperidol.

T1 sequence (Q60492 whole entry): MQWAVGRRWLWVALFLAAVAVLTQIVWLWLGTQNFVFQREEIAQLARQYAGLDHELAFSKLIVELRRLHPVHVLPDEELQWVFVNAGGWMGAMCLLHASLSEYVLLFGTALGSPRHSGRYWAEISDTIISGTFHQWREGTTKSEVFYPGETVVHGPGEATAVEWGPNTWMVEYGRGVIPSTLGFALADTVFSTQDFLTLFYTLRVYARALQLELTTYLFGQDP

Compared with CC(C)CCOc1ccc2c(c1)[C@H]1OCCC[C@H]1[C@@H](C1CCCCC1)N2 (racemic) [Example 27, (4aSR*,5RS*,10bSR*)-5-cyclohexyl-9-(isopentyloxy)-3,4,4a,5,6,10b-hexahydro-2H-pyrano[3,2-c]quinoline hydrochloride], CC(C)CCOc1ccc2c(c1)[C@H]1OCCC[C@H]1[C@@H](C1CCCC1)N2 (racemic) [Example 105, (4aSR*,5RS*,10bSR*)-5-cyclopentyl-9-(isopentyloxy)-3,4,4a,5,6,10b-hexahydro-2H-pyrano[3,2-c]quinoline hydrochloride] is 2.4-fold higher in Ki: 51.6 nM for the first, 124 nM for the second. The first binds more tightly here.

Going from c1cc2c(cc1OCCN1CCOCC1)[C@H]1OCCC[C@H]1[C@@H](C1CCCCC1)N2 (racemic) [Example 67, (4aSR*,5RS*,10bSR*)-5-cyclohexyl-9-(2-morpholinoethoxy)-3,4,4a,5,6,10b-hexahydro-2H-pyrano[3,2-c]quinoline] to c1cc2c(cc1OCCN1CCOCC1)[C@H]1OCC[C@H]1[C@@H](C1CCCCC1)N2 (racemic) [Example 41, (3aSR*,4RS*,9bSR*)-4-cyclohexyl-8-(2-morpholinoethoxy)-2,3,3a,4,5,9b-hexahydrofuro[3,2-c]quinoline hydrochloride], the Ki falls from 311 nM to 131 nM (2.4-fold).

Going from NCCCOc1ccc2c(c1)[C@H]1OCC[C@H]1[C@@H](C1CCCCC1)N2 (racemic) [Example 106, 3-((3aSR*,4RS*,9bSR*)-4-cyclohexyl-2,3,3a,4,5,9b-hexahydrofuro[3,2-c]quinolin-8-yloxy)propan-1-amine hydrochloride] to NCCCOc1ccc2c(c1)[C@H]1OCCC[C@H]1[C@@H](C1CCCCC1)N2 (racemic) [Example 112, 3-((4aSR*,5RS*,10bSR*)-5-cyclohexyl-3,4,4a,5,6,10b-hexahydro-2H-pyrano[3,2-c]quinolin-9-yloxy)propan-1-amine hydrochloride], the Ki rises from 25.3 nM to 134 nM (5.3-fold). The first binds more tightly here.

CC(C)CCOc1ccc2c(c1)[C@H]1OCC[C@H]1[C@@H](C1CCCCC1)N2 (racemic) [Example 32, (3aSR*,4RS*,9bSR*)-4-cyclohexyl-8-(isopentyloxy)-2,3,3a,4,5,9b-hexahydrofuro[3,2-c]quinoline hydrochloride] and CC(C)CCOc1ccc2c(c1)[C@H]1OCCC[C@H]1[C@@H](C1CCOCC1)N2 (racemic) [Example 101, (4aSR*,5RS*,10bSR*)-9-(isopentyloxy)-5-(tetrahydro-2H-pyran-4-yl)-3,4,4a,5,6,10b-hexahydro-2H-pyrano[3,2-c]quinoline hydrochloride] are within 1.5-fold of each other in Ki: 108 nM for the first, 84 nM for the second.

First: c1ccc(Oc2ccc3c(c2)[C@H]2OCCC[C@H]2[C@@H](C2CCSCC2)N3)cc1 (racemic) [Example 71, (4aSR*,5RS*,10bSR*)-9-phenoxy-5-(tetrahydro-2H-thiopyran-4-yl)-3,4,4a,5,6,10b-hexahydro-2H-pyrano[3,2-c]quinoline hydrochloride]
Second: Clc1cccc(Oc2ccc3c(c2)[C@H]2OCCC[C@H]2[C@@H](C2CCCCC2)N3)c1 (racemic) [Example 1, (4aSR*,5RS*,10bSR*)-9-(3-chlorophenoxy)-5-cyclohexyl-3,4,4a,5,6,10b-hexahydro-2H-pyrano[3,2-c]quinoline hydrochloride]
The Ki of the first is 1.9-fold higher: 349 nM for the first, 187 nM for the second. The second binds more tightly here.

Compared with Clc1ccc(Oc2ccc3c(c2)[C@H]2OCC[C@H]2[C@@H](C2CCCCC2)N3)cc1 (racemic) [Example 87, (3aSR*,4RS*,9bSR*)-8-(4-chlorophenoxy)-4-cyclohexyl-2,3,3a,4,5,9b-hexahydrofuro[3,2-c]quinoline hydrochloride], Clc1ccc(Oc2ccc3c(c2)[C@H]2OCCC[C@H]2[C@@H](C2CCCCC2)N3)cc1 (racemic) [Example 55, (4aSR*,5RS*,10bSR*)-9-(4-chlorophenoxy)-5-cyclohexyl-3,4,4a,5,6,10b-hexahydro-2H-pyrano[3,2-c]quinoline hydrochloride] is 1.6-fold lower in Ki: 302 nM for the first, 194 nM for the second. The second binds more tightly here.

c1cc2c(cc1N1CCOCC1)[C@H]1OCC[C@H]1[C@@H](C1CCCCC1)N2 (racemic) [Example 103, (3aSR*,4RS*,9bSR*)-4-cyclohexyl-8-morpholino-2,3,3a,4,5,9b-hexahydrofuro[3,2-c]quinoline hydrochloride] and CCCCCc1ccc2c(c1)[C@H]1OCC[C@H]1[C@@H](C1CCCCC1)N2 (racemic) [Example 84, (3aSR*,4RS*,9bSR*)-4-cyclohexyl-8-pentyl-2,3,3a,4,5,9b-hexahydrofuro[3,2-c]quinoline hydrochloride] are within 1.5-fold of each other in Ki: 337 nM for the first, 244 nM for the second.

First: NCCCCOc1ccc2c(c1)[C@H]1OCCC[C@H]1[C@@H](C1CCCCC1)N2 (racemic) [Example 111, 4-((4aSR*,5RS*,10bSR*)-5-cyclohexyl-3,4,4a,5,6,10b-hexahydro-2H-pyrano[3,2-c]quinolin-9-yloxy)butan-1-amine hydrochloride]
Second: CCCCOc1ccc2c(c1)[C@H]1OCCC[C@H]1[C@@H](C1CCCCC1)N2 (racemic) [Example 16, (4aSR*,5RS*,10bSR*)-9-butoxy-5-cyclohexyl-3,4,4a,5,6,10b-hexahydro-2H-pyrano[3,2-c]quinoline hydrochloride]
The Ki of the first is 2-fold higher: 242 nM for the first, 122 nM for the second. The second binds more tightly here.

Going from CCCCCc1ccc2c(c1)[C@H]1OCC[C@H]1[C@@H](C1CCOCC1)N2 (racemic) [Example 85, (3aSR*,4RS*,9bSR*)-8-pentyl-4-(tetrahydro-2H-pyran-4-yl)-2,3,3a,4,5,9b-hexahydrofuro[3,2-c]quinoline hydrochloride] to CCCCCc1ccc2c(c1)[C@H]1OCCC[C@H]1[C@@H](C1CCOCC1)N2 (racemic) [Example 63, (4aSR*,5RS*,10bSR*)-9-pentyl-5-(tetrahydro-2H-pyran-4-yl)-3,4,4a,5,6,10b-hexahydro-2H-pyrano[3,2-c]quinoline hydrochloride], the Ki falls from 155 nM to 61.9 nM (2.5-fold). The second binds more tightly here.

First: Clc1ccc(Oc2ccc3c(c2)[C@H]2OCC[C@H]2[C@@H](C2CCCCC2)N3)cc1 (racemic) [Example 86, (3aSR*,4RS*,9bSR*)-8-(4-chlorophenoxy)-4-cyclohexyl-2,3,3a,4,5,9b-hexahydrofuro[3,2-c]quinoline]
Second: Fc1ccc(COc2ccc3c(c2)[C@H]2OCC[C@H]2[C@@H](C2CCCCC2)N3)cc1 (racemic) [Example 91, (3aSR*,4RS*,9bSR*)-4-cyclohexyl-8-(4-fluorobenzyloxy)-2,3,3a,4,5,9b-hexahydrofuro[3,2-c]quinoline hydrochloride]
The Ki of the first is 3.4-fold lower: 78.2 nM for the first, 267 nM for the second.

First: COc1ccc2c(c1)[C@H]1OCCC[C@H]1[C@@H](C1CCN(Cc3ccc(Cl)cc3)CC1)N2 (racemic) [Example 109, (4aSR*,5RS*,10bSR*)-5-(1-(4-chlorobenzyl)piperidin-4-yl)-9-methoxy-3,4,4a,5,6,10b-hexahydro-2H-pyrano[3,2-c]quinoline hydrochloride]
Second: COc1ccc2c(c1)[C@H]1OCCC[C@H]1[C@@H](C1CCN(CCc3ccccc3)CC1)N2 (racemic) [Example 108, (4aSR*,5RS*,10bSR*)-9-methoxy-5-(1-phenethylpiperidin-4-yl)-3,4,4a,5,6,10b-hexahydro-2H-pyrano[3,2-c]quinoline hydrochloride]
The Ki of the first is 10-fold lower: 27.2 nM for the first, 279 nM for the second.

First: CCCCCc1ccc2c(c1)[C@H]1OCC[C@H]1[C@@H](C1CCSCC1)N2 (racemic) [Example 95, (3aSR*,4RS*,9bSR*)-8-pentyl-4-tetrahydro-2H-thiopyran-4-yl)-2,3,3a,4,5,9b-hexahydrofuro[3,2-c]quinoline hydrochloride]
Second: CCCCCc1ccc2c(c1)[C@H]1OCCC[C@H]1[C@@H](C1CCCCC1)N2 (racemic) [Example 60, (4aSR*,5RS*,10bSR*)-5-cyclohexyl-9-pentyl-3,4,4a,5,6,10b-hexhaydro-2H-pyrano[3,2-c]quinoline hydrochloride]
The Ki of the first is 2.1-fold higher: 89.1 nM for the first, 42.6 nM for the second.

First: CCN1CCC([C@H]2Nc3ccc(OCCC(C)C)cc3[C@H]3OCCC[C@H]32)CC1 (racemic) [Example 110, (4aSR*,5RS*,10bSR*)-5-(1-ethylpiperidin-4-yl)-9-(isopentyloxy)-3,4,4a,5,6,10b-hexahydro-2H-pyrano[3,2-c]quinoline hydrochloride]
Second: CC(C)CCOc1ccc2c(c1)[C@H]1OCCC[C@H]1[C@@H](C1CCN(Cc3ccccc3)CC1)N2 (racemic) [Example 6, (4aSR*,5RS*,10bSR*)-5-(1-benzylpiperidin-4-yl)-9-(isopentyloxy)-3,4,4a,5,6,10b-hexahydro-2H-pyrano[3,2-c]quinoline hydrochloride]
The Ki of the first is 21-fold higher: 317 nM for the first, 15.1 nM for the second. The second binds more tightly here.

First: CC(C)CCOc1ccc2c(c1)[C@H]1OCCC[C@H]1[C@@H](C1CCNCC1)N2 (racemic) [Example 100, (4aSR*,5RS*,10bSR*)-9-(isopentyloxy)-5-(piperidin-4-yl)-3,4,4a,5,6,10b-hexahydro-2H-pyrano[3,2-c]quinoline hydrochloride]
Second: CC(C)CCOc1ccc2c(c1)[C@H]1OCCC[C@H]1[C@@H](C1CCOCC1)N2 [Example 114, (4aS,5R,10bS)-9-(isopentyloxy)-5-(tetrahydro-2H-pyran-4-yl)-3,4,4a,5,6,10b-hexahydro-2H-pyrano[3,2-c]quinoline]
The Ki of the first is 18-fold higher: 536 nM for the first, 30 nM for the second.

Work on CCCCCc1ccc2c(c1)[C@H]1OCCC[C@H]1[C@@H](C1CCCCC1)N2 (racemic) [Example 59, (4aSR*,5RS*,10bSR*)-5-cyclohexyl-9-pentyl-3,4,4a,5,6,10b-hexahydro-2H-pyrano[3,2-c]quinoline] yielded a Ki of 132 nM.
